Test results reported in patent US6362321B1, “Taxol resistance associated gene” (The General Hospital Corporation, priority 1998, dated 2002).

Columns and labels:
[1] = system: SKOV-3TR cells; assay: MTT cytotoxicity assay, taxol-resistant SKOV-3TR versus parental SKOV-3; assay type: cell-based, Human
Procedure: (§1) All drugs were obtained from commercial sources. In vitro cytotoxicity was measured using a tetrazolium-based semi-automated calorimetric assay (i.e., MTT assay), as described (Carmichael et al., 1987, Cancer Res. 47:936-942). Briefly, 2×10^3 cells per well were cultured for 6 days with taxol or with taxol plus 30 μM verapamil. 20 μl of 5 mg/ml MTT solution was added to each well and incubated for 4 hours. A590 nm was measured after MTT formazan was solubilized with HCl-isopropanol solution. The absorbance values were normalized by assigning the value of the parent line in media to 1.0 and the value of the no-cell blank to 0. Experiments were performed in duplicate.
A taxol-resistant SKOV-3 subline, SKOV-3TR, was established by exposing SKOV-3 cells to taxol at stepwise increases in concentration (from 0.00001 μM to 0.3 μM taxol). […] The growth rate of […], was similar to that of parental SKOV-3. Cell lines were analyzed for their degree of taxol resistance by MTT cytotoxicity assays. […] This drug resistance profile is consistent with a MDR1 phenotype.

[2] = system: SKOV-3 TRAG-3 transfectants; assay: MTT assay of taxol sensitivity in TRAG-3 stable transfectants of SKOV-3; assay type: cell-based, Human; conditions: SKOV-3 lipotransfected with pCI/TRAG-3, G418 selected; initial results
Procedure: as §1
pCI-neo Mammalian Expression Vector (Promega) was used to overexpress TRAG-3 cDNA in SKOV-3 cells. Constructs carrying TRAG-3 were introduced into SKOV-3 cells by using the PERFECT™ Transfection Kit (Invitrogen) according to the manufacturer's protocol. The individual G418 (300 μg/ml) resistant clones were isolated and examined by Northern analysis for stable expression of TRAG-3. MTT assays were performed on the transfectants to evaluate the effect of TRAG-3 on taxol sensitivity.
To elucidate the contribution of TRAG-3 gene product(s) to taxol resistance, taxol-sensitive SKOV-3 cells were lipotransfected with the pCI/TRAG-3 expression vector. After G418 selection, several TRAG-3 stable transfectant subclones were obtained. […]

With CC(=O)O[C@H]1C(=O)[C@@]2(C)[C@H]([C@H](OC(=O)c3ccccc3)[C@]3(O)C[C@H](OC(=O)[C@H](O)[C@@H](NC(=O)c4ccccc4)c4ccccc4)C(C)=C1C3(C)C)[C@]1(OC(C)=O)CO[C@@H]1C[C@@H]2O [taxol] as the compound, how does the “degree of taxol resistance of SKOV-3TR relative to SKOV-3” value ([1]; MTT cytotoxicity, SKOV-3TR vs parental SKOV-3, 6 days culture) read?
Its value is “approximately 100 fold”.

And the “taxol resistance of TRAG-3 transfectants compared to the parent line” value [2]?
The value was “no significant increase in taxol resistance”.

With COc1ccc(CCN(C)CCCC(C#N)(c2ccc(OC)c(OC)c2)C(C)C)cc1OC (stereo not shown) [verapamil] as the compound, how does the “effect of verapamil on SKOV-3TR's resistance to taxol” value ([1]; taxol plus 30 μM verapamil, MTT assay, FIG. 1) read?
Its value is “reversed”.

With CC[C@]1(O)C[C@H]2CN(CCc3c([nH]c4ccccc34)[C@@](C(=O)OC)(c3cc4c(cc3OC)N(C=O)[C@H]3[C@@](O)(C(=O)OC)[C@H](OC(C)=O)[C@]5(CC)C=CCN6CC[C@]43[C@@H]65)C2)C1 [vincristine] as the compound, how does the “resistance of SKOV-3TR to other drugs (cross-resistance)” value ([1]; SKOV-3TR selected with taxol up to 0.3 μM) read?
The value was “cross-resistance”.
